Measured values taken from PubChem BioAssay (NCI).
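The compound was tested at five concentrations on cells cultured in 96-well plates, with a 48-hour exposure period. Here, GI50 denotes the concentration required for 50% inhibition of growth. TGI marks complete inhibition of growth.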

Experiments:
Assay in all cases: NCI-60 cell line screen, 48 h
786-0 renal = test system: 786-0 renal
NCI-H23 lung = test system: NCI-H23 lung
SF-268 CNS = test system: SF-268 CNS
RXF 393 renal = test system: RXF 393 renal
A498 renal = test system: A498 renal
HCC-2998 colon = test system: HCC-2998 colon
SNB-75 CNS = test system: SNB-75 CNS
BT-549 breast = test system: BT-549 breast
HL-60(TB) leukemia = test system: HL-60(TB) leukemia
CAKI-1 renal = test system: CAKI-1 renal
PC-3 prostate = test system: PC-3 prostate
OVCAR-5 ovarian = test system: OVCAR-5 ovarian
M14 melanoma = test system: M14 melanoma
SR leukemia = test system: SR leukemia
TK-10 renal = test system: TK-10 renal
SN12C renal = test system: SN12C renal
HOP-92 NSCLC = test system: HOP-92 NSCLC
NCI/ADR-RES ovarian = test system: NCI/ADR-RES ovarian
SK-MEL-28 melanoma = test system: SK-MEL-28 melanoma
MOLT-4 leukemia = test system: MOLT-4 leukemia
KM12 colon = test system: KM12 colon
NCI-H226 lung = test system: NCI-H226 lung
SW-620 colon = test system: SW-620 colon
RPMI-8226 leukemia = test system: RPMI-8226 leukemia
SF-539 CNS = test system: SF-539 CNS
OVCAR-3 ovarian = test system: OVCAR-3 ovarian
UACC-62 melanoma = test system: UACC-62 melanoma
ACHN renal = test system: ACHN renal
SF-295 CNS = test system: SF-295 CNS
EKVX NSCLC = test system: EKVX NSCLC
SK-MEL-5 melanoma = test system: SK-MEL-5 melanoma
CCRF-CEM leukemia = test system: CCRF-CEM leukemia
A549 NSCLC = test system: A549 NSCLC
HS 578T breast = test system: HS 578T breast
NCI-H522 lung = test system: NCI-H522 lung
LOX IMVI melanoma = test system: LOX IMVI melanoma
HT29 colon = test system: HT29 colon
HOP-62 NSCLC = test system: HOP-62 NSCLC
K-562 leukemia = test system: K-562 leukemia
MALME-3M melanoma = test system: MALME-3M melanoma
UACC-257 melanoma = test system: UACC-257 melanoma
IGROV1 ovarian = test system: IGROV1 ovarian
UO-31 renal = test system: UO-31 renal
HCT-15 colon = test system: HCT-15 colon
OVCAR-4 ovarian = test system: OVCAR-4 ovarian
NCI-H460 lung = test system: NCI-H460 lung
COLO 205 colon = test system: COLO 205 colon
OVCAR-8 ovarian = test system: OVCAR-8 ovarian
MDA-MB-231 breast = test system: MDA-MB-231 breast
U251 CNS = test system: U251 CNS
SNB-19 CNS = test system: SNB-19 CNS
SK-MEL-2 melanoma = test system: SK-MEL-2 melanoma
HCT-116 colon = test system: HCT-116 colon
MCF7 breast = test system: MCF7 breast
DU-145 prostate = test system: DU-145 prostate
SK-OV-3 ovarian = test system: SK-OV-3 ovarian
MDA-MB-435 = test system: MDA-MB-435

Compound `COc1ccc(/C=C\c2cc(OC)c(OC)c(OC)c2)cc1OC(=O)c1cccc(Cn2cc(CCOC(=O)[C@H](N)Cc3cn(C)c4ccccc34)nn2)c1` has a GI50 (786-0 renal) of 0.111 µM, a TGI (786-0 renal) greater than 100 µM and a GI50 (NCI-H23 lung) of less than 0.01 µM. For the same compound, the TGI (NCI-H23 lung) was 63.7 µM, the GI50 (SF-268 CNS) was 0.0296 µM and the TGI (SF-268 CNS) was greater than 100 µM. For the same compound, the GI50 (RXF 393 renal) was less than 0.01 µM, the TGI (RXF 393 renal) was 12.9 µM and the GI50 (A498 renal) was less than 0.01 µM. The GI50 (HCC-2998 colon) was 0.0198 µM, the TGI (HCC-2998 colon) was 1.7 µM and the GI50 (SNB-75 CNS) was less than 0.01 µM. For the same compound, the TGI (SNB-75 CNS) was 0.0293 µM, the GI50 (BT-549 breast) was less than 0.01 µM and the TGI (BT-549 breast) was 13.3 µM. For the same compound, the GI50 (HL-60(TB) leukemia) was less than 0.01 µM, the GI50 (CAKI-1 renal) was less than 0.0139 µM and the TGI (CAKI-1 renal) was greater than 61.3 µM. It also gave a GI50 (PC-3 prostate) of less than 0.01 µM, a TGI (PC-3 prostate) greater than 100 µM and a GI50 (OVCAR-5 ovarian) of 0.0886 µM. The TGI (OVCAR-5 ovarian) was greater than 100 µM, the GI50 (M14 melanoma) was less than 0.01 µM and the TGI (M14 melanoma) was 16.9 µM. The GI50 (SR leukemia) was less than 0.01 µM, the TGI (SR leukemia) was 2.66 µM and the GI50 (TK-10 renal) was 25 µM. It also gave a TGI (TK-10 renal) greater than 100 µM, a GI50 (SN12C renal) of less than 0.01 µM and a TGI (SN12C renal) greater than 100 µM. It also gave a GI50 (HOP-92 NSCLC) of 0.206 µM, a TGI (HOP-92 NSCLC) greater than 88.2 µM and a GI50 (NCI/ADR-RES ovarian) of less than 0.01 µM. For the same compound, the TGI (NCI/ADR-RES ovarian) was 23.5 µM, the GI50 (SK-MEL-28 melanoma) was 2.69 µM and the TGI (SK-MEL-28 melanoma) was 36.1 µM. The GI50 (MOLT-4 leukemia) was less than 0.01 µM, the TGI (MOLT-4 leukemia) was 18.8 µM and the GI50 (KM12 colon) was less than 0.01 µM. It also gave a TGI (KM12 colon) of 16.5 µM, a GI50 (NCI-H226 lung) of less than 0.0169 µM and a TGI (NCI-H226 lung) of 38.9 µM. The GI50 (SW-620 colon) was less than 0.01 µM, the TGI (SW-620 colon) was greater than 100 µM and the GI50 (RPMI-8226 leukemia) was less than 0.01 µM. For the same compound, the TGI (RPMI-8226 leukemia) was 2.23 µM, the GI50 (SF-539 CNS) was less than 0.01 µM and the TGI (SF-539 CNS) was 0.272 µM. It also gave a GI50 (OVCAR-3 ovarian) of less than 0.01 µM, a TGI (OVCAR-3 ovarian) of 18.9 µM and a GI50 (UACC-62 melanoma) of less than 0.01 µM. For the same compound, the TGI (UACC-62 melanoma) was 24.2 µM, the GI50 (ACHN renal) was less than 0.01 µM and the TGI (ACHN renal) was greater than 60.7 µM. The GI50 (SF-295 CNS) was 0.0295 µM, the TGI (SF-295 CNS) was 12.5 µM and the GI50 (EKVX NSCLC) was 0.0538 µM. It also gave a TGI (EKVX NSCLC) greater than 100 µM, a GI50 (SK-MEL-5 melanoma) of less than 0.01 µM and a TGI (SK-MEL-5 melanoma) of 0.0254 µM. It also gave a GI50 (CCRF-CEM leukemia) of less than 0.01 µM, a TGI (CCRF-CEM leukemia) greater than 100 µM and a GI50 (A549 NSCLC) of 0.0322 µM. For the same compound, the TGI (A549 NSCLC) was greater than 100 µM, the GI50 (HS 578T breast) was less than 0.01 µM and the TGI (HS 578T breast) was greater than 100 µM. For the same compound, the GI50 (NCI-H522 lung) was less than 0.01 µM, the TGI (NCI-H522 lung) was 29.4 µM and the GI50 (LOX IMVI melanoma) was less than 0.01 µM. For the same compound, the TGI (LOX IMVI melanoma) was 14.2 µM, the GI50 (HT29 colon) was 0.379 µM and the TGI (HT29 colon) was greater than 20.9 µM. It also gave a GI50 (HOP-62 NSCLC) of less than 0.01 µM, a TGI (HOP-62 NSCLC) greater than 100 µM and a GI50 (K-562 leukemia) of less than 0.01 µM. For the same compound, the TGI (K-562 leukemia) was greater than 22.4 µM, the GI50 (MALME-3M melanoma) was 0.081 µM and the TGI (MALME-3M melanoma) was 25.6 µM. The GI50 (UACC-257 melanoma) was 11.4 µM, the TGI (UACC-257 melanoma) was 47.6 µM and the GI50 (IGROV1 ovarian) was less than 0.0136 µM. For the same compound, the TGI (IGROV1 ovarian) was greater than 100 µM, the GI50 (UO-31 renal) was 0.192 µM and the TGI (UO-31 renal) was greater than 45.1 µM. For the same compound, the GI50 (HCT-15 colon) was less than 0.01 µM, the TGI (HCT-15 colon) was greater than 44 µM and the GI50 (OVCAR-4 ovarian) was 0.208 µM. For the same compound, the TGI (OVCAR-4 ovarian) was greater than 85.4 µM, the GI50 (NCI-H460 lung) was less than 0.01 µM and the TGI (NCI-H460 lung) was greater than 42.8 µM. The GI50 (COLO 205 colon) was 0.35 µM, the TGI (COLO 205 colon) was 1.55 µM and the GI50 (OVCAR-8 ovarian) was less than 0.01 µM. The TGI (OVCAR-8 ovarian) was greater than 100 µM, the GI50 (MDA-MB-231 breast) was less than 0.01 µM and the TGI (MDA-MB-231 breast) was greater than 51.9 µM. The GI50 (U251 CNS) was less than 0.01 µM, the TGI (U251 CNS) was greater than 100 µM and the GI50 (SNB-19 CNS) was less than 0.01 µM. It also gave a TGI (SNB-19 CNS) greater than 100 µM, a GI50 (SK-MEL-2 melanoma) of 15.4 µM and a TGI (SK-MEL-2 melanoma) greater than 83.5 µM. The GI50 (HCT-116 colon) was less than 0.01 µM, the TGI (HCT-116 colon) was 38.7 µM and the GI50 (MCF7 breast) was 0.0123 µM. The TGI (MCF7 breast) was 14 µM, the GI50 (DU-145 prostate) was less than 0.01 µM and the TGI (DU-145 prostate) was greater than 100 µM. The GI50 (SK-OV-3 ovarian) was 0.455 µM and the TGI (SK-OV-3 ovarian) was greater than 100 µM.
`NC(=S)N/N=C(\Cc1nc2ccc(Cl)cc2[nH]c1=O)C(=O)Nc1ccc(Cl)cc1` gave a TGI (786-0 renal) greater than 100 µM, a TGI (NCI-H23 lung) greater than 100 µM and a TGI (SF-268 CNS) greater than 100 µM. For the same compound, the TGI (RXF 393 renal) was greater than 100 µM, the TGI (HCC-2998 colon) was greater than 100 µM and the TGI (SNB-75 CNS) was greater than 100 µM. For the same compound, the TGI (BT-549 breast) was greater than 100 µM, the TGI (HL-60(TB) leukemia) was greater than 100 µM and the TGI (CAKI-1 renal) was greater than 100 µM. The TGI (PC-3 prostate) was greater than 100 µM, the TGI (OVCAR-5 ovarian) was greater than 100 µM and the TGI (M14 melanoma) was greater than 100 µM. The TGI (TK-10 renal) was greater than 100 µM, the TGI (SN12C renal) was greater than 100 µM and the TGI (HOP-92 NSCLC) was greater than 100 µM. For the same compound, the TGI (NCI/ADR-RES ovarian) was greater than 100 µM, the TGI (SK-MEL-28 melanoma) was greater than 100 µM and the TGI (MOLT-4 leukemia) was greater than 100 µM. It also gave a TGI (KM12 colon) greater than 100 µM, a TGI (NCI-H226 lung) greater than 100 µM and a TGI (SW-620 colon) greater than 100 µM. The TGI (SF-539 CNS) was greater than 100 µM, the TGI (OVCAR-3 ovarian) was greater than 100 µM and the TGI (UACC-62 melanoma) was greater than 100 µM. The TGI (ACHN renal) was greater than 100 µM, the TGI (SF-295 CNS) was greater than 100 µM and the TGI (EKVX NSCLC) was greater than 100 µM. For the same compound, the TGI (SK-MEL-5 melanoma) was greater than 100 µM, the TGI (CCRF-CEM leukemia) was greater than 100 µM and the TGI (A549 NSCLC) was greater than 100 µM. For the same compound, the TGI (HS 578T breast) was greater than 100 µM, the TGI (NCI-H522 lung) was greater than 100 µM and the TGI (LOX IMVI melanoma) was greater than 100 µM. It also gave a TGI (HT29 colon) greater than 100 µM, a TGI (HOP-62 NSCLC) greater than 100 µM and a TGI (UACC-257 melanoma) greater than 100 µM. It also gave a TGI (IGROV1 ovarian) greater than 100 µM, a TGI (UO-31 renal) greater than 100 µM and a TGI (HCT-15 colon) greater than 100 µM. The TGI (OVCAR-4 ovarian) was greater than 100 µM, the TGI (NCI-H460 lung) was greater than 100 µM and the TGI (COLO 205 colon) was greater than 100 µM. The TGI (OVCAR-8 ovarian) was greater than 100 µM, the TGI (MDA-MB-231 breast) was greater than 100 µM and the TGI (U251 CNS) was greater than 100 µM. It also gave a TGI (SNB-19 CNS) greater than 100 µM, a TGI (SK-MEL-2 melanoma) greater than 100 µM and a TGI (MDA-MB-435) greater than 100 µM. For the same compound, the TGI (HCT-116 colon) was greater than 100 µM, the TGI (MCF7 breast) was greater than 100 µM and the TGI (DU-145 prostate) was greater than 100 µM. The TGI (SK-OV-3 ovarian) was greater than 100 µM.
